{"source": "paper PMC4961458", "about": "(eLife, 2016)", "key": {"uterus of juvenile rats": {"tested_on": "uterus of juvenile rats", "assay": "Juvenile rat uterus assays", "type": "in vivo, Sprague Dawley rats", "conditions": "fulvestrant 50 mg/kg", "text": "[…] Rats were euthanized 4 hr after the final dose. Uteri were then dissected, weighed and fixed for histological examination. A small portion of tissue was saved prior to fixation for mRNA isolation and gene expression analysis.\nH&E stained sections from bilateral representative uterine horn cross-sections were examined from two animals treated with the compounds shown. Endometrial cell height was digitally measured from the basement membrane to the apical (luminal) surface (orange line), using a digitally scanned image at 20X magnification. Obliquely cut areas were avoided. Three digital measurements were taken from each section (n = 6).\nEstrogen receptor was detected using the mouse monoclonal anti-ER (clone 1D5, Dako), incubated for 60 min at RT at a dilution of 0.5 µg/ml, and visualized after secondary rabbit anti-mouse antibody binding with Powervision DAB (Leica Powersystems). H-scores were estimated manually, incorporating both intensity and percentage of positive nuclei, using the following formula: (0 x% negative)+(1 x% weak)+(2 x% moderate)+(3 x% strong)"}, "[1]": {"tested_on": "HCI-003 patient derived xenograft tumors", "assay": "HCI-003 patient derived xenograft efficacy", "type": "in vivo, mice", "conditions": "tamoxifen 60 mg/kg/day orally; fulvestrant 200 mg/kg 3x/week; 38 days", "text": "Like MCF7, HCI-003 tumors are ER+, E2 dependent and tamoxifen sensitive (Figure 4—figure supplement 1C). […] Lack of efficacy in this ER-negative model is consistent with the GDC-0810 mechanism of action being selectively mediated through ER.\nThe HCI-003 model was established at the University of Utah, Huntsman Cancer Center via direct implantation of both primary tumor material into immune compromised mice ([DeRose et al., 2011]). HCI-003 is wild-type at the ESR1 ligand binding domain. Exogenous estradiol is required for robust growth of this patient derived tumor line, and is supplied in the form of estradiol impregnated beeswax pellets. Tumor fragments obtained from the Huntsman Cancer Center were surgically implanted into the cleared mammary fat pad of 19 day old female NOD.CB17-Prkdc^scid/NcrCrl mice (Charles River Laboratories). The right mammary fat pad of recipient animals was exposed by a 1 cm incision on the ventral mid-line at the level of the fourth mammary. The blood vessels were cauterized and the fat pad blunt dissected from the abdominal wall and skin. Tumor fragments were excised from donor animals, chopped into fragments approximately 8 mm^3 (2 × 2 × 2 mm), implanted in the region of the cleared mammary fat pad, and the incision was closed with wound clips. Estradiol impregnated beeswax pellets were implanted subcutaneously into the interscapular space of recipient animals on the day of tumor implant. Recipient animals were ovariectomized 19 days after tumor fragment implant. One group of animals was designated as a control for estradiol independent tumor growth (Vehicle-E2) and the estradiol impregnated pellets were excised on the first day of dosing. All mice were housed and maintained according to the animal-use guidelines of the Institutional Animal Care and Use Committee (IACUC), conforming to California State legal and ethical practices."}, "TamR1 tumors": {"tested_on": "TamR1 tumors", "assay": "Tamoxifen-resistant MCF7 (TamR1) xenograft efficacy", "type": "in vivo, mice", "conditions": "0.18 mg 60 day E2 pellets; tamoxifen 120 mg/kg/day p.o.; fulvestrant 200 mg/kg 3x/week s.c.; GDC-0810 10, 30 or 100 mg/kg/day p.o.; 27 days", "procedure": "We previously generated a tamoxifen-resistant xenograft model, TamR1, by chronically treating MCF7 tumor bearing mice with tamoxifen until a resistant tumor emerged ([Lai et al., 2015]). […] These experiments were conducted in mice with relatively high levels of circulating estradiol, with estradiol being delivered via 0.72 mg 60 day release E2 pellets that are reported by the manufacturer (Innovative Research) to deliver between 300 and 400 pg/ml estradiol. Under these conditions the high E2 reduces the steady state ERα protein levels, thus confounding the readout of ERα protein as a pharmacodynamic endpoint (Figure 5—figure supplement 1). […] These pellets are sufficient to support tumor growth but only modestly reduce ERα levels (Figure 5—figure supplement 1).\nFigure 5. […] (A) Tamoxifen-resistant MCF7 tumors were implanted in animals supplemented with 60-day release 0.18 mg 17β-estradiol pellets. […] S.c. is sub-cutaneous dosing, and p.o. is per os (by mouth) oral gavage dosing. * Denotes significance (p<0.05) compared to Vehicle in 1-Way ANOVA and Dunnett's Multiple Comparison Test. Figure 5—figure supplement 1. Effects of estradiol pellet on ERα levels in MCF7-TamR1 xenograft tumors. TamR1 tumor fragments were implanted into Crl:NU-Foxn1^nu mice implanted with either 0.72 or 0.18 mg/60 day 17-β estradiol pellets. Once tumors were established pellets were removed from 1 group. 28 days after pellet removal ERα protein levels were determined for 4 tumors from each group. Data is presented as average compared to Vehicle (-E2). Error is standard deviation. * Denotes significance (p<0.05) compared to Vehicle (-E2) by T-test. [drawing 7] […] (A) ERα protein levels were determined by western blot analysis of tumors 8 hr following the final compound treatment on day 27. […] KI-67 expression, quantified from IHC analysis. […]\nThe tamoxifen-resistant derivative of the ER+ human tumor cell line, MCF7 (TamR1) was developed by Seragon Pharmaceuticals, Inc ([Lai et al., 2015]). […] The tumors which continued to grow under these conditions were serially passaged and evaluated for continued tamoxifen resistance. […]"}, "WHIM20 tumors": {"tested_on": "WHIM20 tumors", "type": "in vivo, mice", "conditions": "no E2 pellets; GDC-0810 100 mg/kg/day; tamoxifen 60 mg/kg/day; fulvestrant 50 mg/kg days 1, 3 and 7, 25 mg/kg weekly thereafter; 35 days", "text": "Figure 8. […] (B) Gene expression analysis of WHIM20 tumors after 4 days of dosing, harvested 8 hr after the final dose. […] (E) WHIM20 tumors were implanted in mice without supplemental 17β-estradiol pellets.\nThe WHIM20 patient derived xenograft model (WHIM20) was established via direct implantation of metastatic tumor material into immune compromised mice at Washington University in St. Louis ([Li et al., 2013]).\nTumors were established from fragments obtained from Washington University by subcutaneous implantation via 10G trocar into the right flank of 6–7 week old female NOD.CB17-Prkdc^scid/NcrCrl mice (Charles River Laboratories) and NOD.Cg-Prkdc^scid Il2rg^tm1Wjl/SzJ mice (Jackson Laboratories). Tumor line was propagated by serial transplantation. Animals were ovariectomized prior to initiation of treatment."}}, "data": [{"smiles": "CC/C(=C(\\c1ccccc1)c1ccc(OCCN(C)C)cc1)c1ccccc1", "note": "[Tamoxifen]", "values": [{"measurement": "Uterine wet weight", "setting": "uterus of juvenile rats; tamoxifen 60 mg/kg orally once a day for 3 days, GDC-0810 0.1 or 10 mg/kg, relative to vehicle control", "value": "increases uterine wet weight"}, {"measurement": "Endometrial epithelial cell morphology (histology, endometrial cell height)", "setting": "uterus of juvenile rats; tamoxifen 60 mg/kg, GDC-0810 0.1 and 10 mg/kg", "value": "induced a cuboidal to columnar morphological change"}, {"measurement": "Anti-tumor activity, HCI-003 PDX (Figure 4—figure supplement 1C)", "setting": "[1]", "value": "display anti-tumor activity"}, {"measurement": "Tumor growth response, TamR1 xenograft, lower E2", "setting": "TamR1 tumors", "value": "stimulated tumor growth"}, {"measurement": "Tumor growth response, WHIM20 PDX", "setting": "WHIM20 tumors", "value": "induced tumor stasis"}]}]}
